According to PubChem BioAssay (NCI):
Where “and” joins values, the source holds several entries; their conditions need not be identical. Equal values may be shown once.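 Following 48 hours of exposure in 96-well plates, responses at five concentrations were used to interpolate endpoints linearly. GI50 = concentration required for 50% inhibition of growth. The concentration for full growth arrest is given as TGI.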

Tests used:
Test in all cases: DTP human tumour cell line panel, 48 h
[1] = tested on: SF-539 CNS
[2] = tested on: RXF 393 renal
[3] = tested on: T-47D breast
[4] = tested on: A498 renal
[5] = tested on: COLO 205 colon
[6] = tested on: UACC-62 melanoma
[7] = tested on: MOLT-4 leukemia
[8] = tested on: OVCAR-4 ovarian
[9] = tested on: MCF7 breast
[10] = tested on: SK-OV-3 ovarian

SMILES	GI50 [1]	TGI [1]	GI50 [2]	TGI [2]	GI50 [3]	TGI [3]	GI50 [4]	TGI [4]	GI50 [5]	TGI [5]	GI50 [6]	TGI [6]	GI50 [7]	TGI [7]	GI50 [8]	TGI [8]	GI50 [9]	TGI [9]	GI50 [10]	TGI [10]
CNCc1cccc2c1OCCOCCOCCC(C)S(=O)(=O)c1ccc(cc1)-c1cnc(N)c(n1)C(=O)N2 (stereo not given)	1.28 µM	2.56 µM	0.175 µM	1.6 µM	3.62 µM	18.7 µM	0.139 µM	2.14 µM	0.564 µM	5.25 µM	1.67 µM	3.3 µM	1.3 µM	10.3 µM	1.32 µM	4.32 µM	1.28 µM	14.6 µM	0.525 µM	2.87 µM
COC(=O)C(=O)C(C(=O)C(=O)Nc1ccc(C)c(C)c1)c1nc2ccc([N+](=O)[O-])cc2[nH]c1=O (stereo not given)		> 100 µM		> 100 µM		> 100 µM		> 100 µM				> 100 µM		> 100 µM		> 100 µM		> 100 µM		> 100 µM
NC(N)=N/N=C(/c1ccccc1)c1ccccc1F	0.8 µM	4.59 µM	3 µM	13.9 µM	12.6 µM	41.3 µM	2.28 µM	9.44 µM	2.16 µM	7.01 µM	4.54 µM	20.7 µM	5.57 µM	> 100 µM	1.73 µM	32 µM	0.327 µM	13.3 µM	4.82 µM	37.9 µM
COc1cc(N(CCC#N)CCC#N)ccc1/C(N=Nc1ccc(C(=O)O)cc1)=N/NC(=O)c1cc(Br)ccc1O	85.8 µg/mL	> 150 µg/mL	66.3 µg/mL	> 150 µg/mL	64.4 µg/mL	> 150 µg/mL	> 150 µg/mL	> 150 µg/mL	43.3 µg/mL	140 µg/mL	149 µg/mL	> 150 µg/mL	67.5 µg/mL	> 150 µg/mL	30 µg/mL	65.5 µg/mL	57.3 µg/mL	> 150 µg/mL	86.2 µg/mL	> 150 µg/mL
c1cncc(C2ONC3=NCCN32)c1 (stereo not given)	28.9 µM	> 100 µM	20.9 µM	96.3 µM	40 µM	> 100 µM	16.6 µM	40.2 µM	27.7 µM	> 100 µM	46.7 µM	> 100 µM	28.4 µM	56.6 µM	> 100 µM	> 100 µM	17.5 µM	> 100 µM	26.2 µM	> 100 µM
Fc1ccc(-c2nn3c(COc4ccc(Cl)cc4)nnc3s2)cc1Oc1ccccc1	22.5 µM	> 55.5 µM	26.3 µM	87.5 µM	28 µM	> 66.3 µM	15.3 µM	51.8 µM	41.8 µM	> 61.8 µM	32.4 µM	> 63.4 µM	3.51 µM	17.7 µM	50.4 µM	> 100 µM	21.9 µM	> 48.3 µM	78.9 µM	> 100 µM
Cc1nc2c(Br)cc(Br)cc2c(=O)n1-c1ccccc1NC1OCC(O)C(O)C1O (stereo not given)	48.4 µM and 7.53 µM	> 100 µM and 22.3 µM	33.2 µM and 12.5 µM	> 100 µM and 49.2 µM		> 100 µM	87.2 µM and 18.3 µM	> 100 µM and 45.6 µM		34.2 µM and > 100 µM	31.7 µM and 15.7 µM	> 100 µM and 36.7 µM	19.5 µM and 3.5 µM	61.1 µM and > 36.1 µM		> 100 µM	28.4 µM and 3.7 µM	> 100 µM	76.3 µM and 29.9 µM	> 100 µM
O=C(c1ccccc1)C(Br)C(Br)c1ccccc1 (stereo not given)	10.7 µM	22.6 µM	1.89 µM	3.51 µM	2.59 µM	6.26 µM	12.8 µM	25.5 µM	1.92 µM	3.5 µM	11.8 µM	24.2 µM			1.66 µM	3.08 µM	1.79 µM	7.85 µM	15.3 µM	28.8 µM
C=C1CC/C=C(\C)CC[C@H](C(=C)C)[C@@H](O)/C=C(/CO)CCC1O (stereo not given in full)	> 100 µM	> 100 µM	89.9 µM	> 100 µM	45.7 µM	> 100 µM	> 100 µM	> 100 µM	88.2 µM	> 100 µM	57.3 µM	> 100 µM	24 µM	53.6 µM	> 100 µM	> 100 µM	21.4 µM	> 100 µM	> 100 µM	> 100 µM
N/C(=N\C(N)=N\c1nc2ccccc2s1)c1cnccn1	2.07 µM	4.12 µM	1.93 µM	3.96 µM	2.24 µM	6.22 µM	1.45 µM	3.89 µM			1.74 µM	3.52 µM	3.48 µM	> 100 µM	3.38 µM	> 100 µM	3.16 µM	> 100 µM	1.84 µM	3.83 µM
O=NN(CCCl)C(=O)NC1CCCCC1	16.4 µM and 33 µM	34 µM and 84.4 µM and 124 µM	18.1 µM and 76.4 µM	32.9 µM and 102 µM and 143 µM		166 µM		155 µM	20.3 µM and 57.1 µM	36.7 µM and 102 µM and 87.8 µM	7.68 µM	24.2 µM and 72 µM and 77.3 µM	20.7 µM and 36.1 µM	38.4 µM and 99.1 µM and 80.3 µM	20 µM	90.8 µM and 155 µM and 87.1 µM		117 µM	43.1 µM and 149 µM	162 µM and 232 µM
COc1ccc(OCC(O)CN2CCN(c3ccc(Cl)cc3)CC2)cc1 (stereo not given)	> 100 µM	> 100 µM	79.1 µM	> 100 µM	> 100 µM	> 100 µM	> 100 µM	> 100 µM	> 100 µM	> 100 µM	> 100 µM	> 100 µM	> 100 µM	> 100 µM	> 100 µM	> 100 µM	> 100 µM	> 100 µM	> 100 µM	> 100 µM
O=c1[nH]c2ccc([N+](=O)[O-])c(Cl)c2c2ccccc12		4.64 µM				73.7 µM		80.2 µM		26.3 µM		15.5 µM		31.8 µM		24.7 µM		2.23 µM		4.86 µM
O=C(OC[C@@H]1CO1)c1cccc2c(=O)c3ccccc3[nH]c12	0.344 µM	1.97 µM	0.207 µM	0.515 µM	0.89 µM	5.55 µM	1.76 µM	3.56 µM	0.246 µM	1.41 µM	0.229 µM	0.56 µM	0.0531 µM		0.671 µM	4.72 µM	0.0469 µM	0.642 µM		
